From PMC5665883, “Antithrombotic properties of JJ1, a potent and novel thrombin inhibitor” (Scientific Reports, 2017)
Marks after values point to notes of the source that are not given here.

What was measured:
Trypsin = experiment: Chromogenic substrate assay, Ki (Dixon); type: biochemical, human; conditions: for Ki: Trypsin, mean ± SD (n = 5)
Description: (§1) Chromogenic substrate assays were performed using a Labsystems IEMS (Cergy Pontoise, France) microtiter plate reader. K i values were calculated according to the method of Dixon[65]. In each assay, the compound was tested at a minimum of seven concentrations, in duplicate, to obtain an inhibition curve. The following general procedures were adopted for each assay. In a 96-well microtiter plate, 25 μL of inhibitor solution or buffer was added to 50 μL of substrate. The enzyme solution (25 μL) was added just before the plate was placed in the microtiter plate reader for 1 h at 37 °C. The hydrolysis of the substrate yields p-nitroaniline, which was continuously monitored spectrophotometrically at 405 nm. The maximal initial reaction rates were calculated and expressed as millioptical density per minute.

human α-thrombin = molecular target: T1, human α-thrombin (Homo sapiens, UniProt P00734); experiment: Chromogenic substrate assay, Ki (Dixon); type: biochemical
T1 construct: purchased Haematologic Technologies (Essex Junction, VT)

thrombin [1] = molecular target: T2, thrombin (Homo sapiens, UniProt P00734); experiment: Thrombin activity assay (amidolytic activity, S-2238); type: biochemical; conditions: α-Thrombin, chromogenic substrate; read-out: IC50, inhibition of amidolytic activity of thrombin (converted)
T2 construct: thrombin solution (150 μL, 10 U/mL) was added; purchased Haematologic Technologies (Essex Junction, VT)
Description: Following a 2-min incubation at 37 °C, thrombin solution (150 μL, 10 U/mL) was added, followed by incubation at 37 °C for 1 min. A solution of the thrombin substrate, S-2238, (150 μL, 1.5 mM) solution was subsequently added and the absorbance at 405 nm was monitored for 120 s using a spectrophotometer (TECAN, Männedorf, Switzerland).

Elastase = molecular target: T3, Elastase (Homo sapiens, UniProt P08246); experiment: Chromogenic substrate assay, Ki (Dixon); type: biochemical; conditions: K i Elastase/K i α-thrombin
T3 sequence (P08246 30-247): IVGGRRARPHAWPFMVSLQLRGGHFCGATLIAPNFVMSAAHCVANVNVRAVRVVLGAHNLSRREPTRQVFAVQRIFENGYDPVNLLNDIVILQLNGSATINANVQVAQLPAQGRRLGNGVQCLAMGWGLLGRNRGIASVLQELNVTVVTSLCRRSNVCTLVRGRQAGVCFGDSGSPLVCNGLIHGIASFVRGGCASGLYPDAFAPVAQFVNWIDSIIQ
Description: as §1

tPA = tPA (Homo sapiens, UniProt P00750); experiment: Chromogenic substrate assay, Ki (Dixon); type: biochemical; conditions: for Ki: tPA
human plasma [2] = experiment: In vitro PT clotting time; type: biochemical; conditions: at the maximum antithrombotic dose
Plasmin = molecular target: T4, Plasmin (Homo sapiens, UniProt P00747); experiment: Chromogenic substrate assay, Ki (Dixon); type: biochemical; conditions: for Ki: Plasmin
T4 construct: thrombin versus trypsin, factor Xa, elastase, plasmin, protein Ca, streptokinase, tPA, and urokinase

[3] = In vivo tail bleeding time; parameters: species or system C57BL/6 mice; conditions: mice, i.v. injection
Description: Tail bleeding times were measured by using the method of Dejana et al.[63],[64]. Briefly, C57BL/6 mice were fasted overnight prior to the experiments. One hour after the i.v. administration of JJ1, the tails of the mice were transected at 2 mm from their tips. The bleeding time was defined as the time elapsed until the bleeding stopped. Bleeding times exceeding 15 min were recorded as lasting for 15 min.

human plasma [4] = experiment: In vitro PT clotting time; type: biochemical; conditions: in vitro, 5.0 μM
Description: (§2) The aPTT and PT were determined using a Thrombotimer (Behnk Elektronik, Norderstedt, Germany) in accordance with the manufacturer’s instructions and as previously described. Briefly, citrated normal human plasma (90 μL) was mixed with 10 μL JJ1 and incubated for 1 min at 37 °C. Subsequently, the aPTT assay reagent (100 μL) was added, the plasma sample was incubated for an additional 1 min at 37 °C, 20 mM CaCl2 (100 μL) was added, and the clotting times were recorded. For the PT assays, citrated normal human plasma (90 μL) was mixed with 10 μL JJ1 stock solution and was incubated for 1 min at 37 °C. The PT assay reagent (200 μL), which had been pre-incubated for 10 min at 37 °C, was subsequently added and the clotting time was recorded. The PT results were expressed in seconds and as International Normalized Ratios (INR): INR = (PT sample/PT control)^ISI, where ISI = international sensitivity index. The aPTT results were also expressed in seconds. All experimental protocols (KNUH 2012-01-010) were approved by the Institutional Review Board of Kyungpook National University Hospitals (Daegu, Republic of Korea).

human plasma [5] = experiment: In vitro aPTT clotting time; type: biochemical; conditions: in vitro, 5.0 μM
Description: as §2

human plasma [6] = experiment: In vitro aPTT clotting time; type: biochemical; conditions: at the maximum antithrombotic dose
Streptokinase = Streptokinase (Homo sapiens, UniProt P00747); experiment: Chromogenic substrate assay, Ki (Dixon); type: biochemical; conditions: for Ki: Streptokinase
Protein Ca = molecular target: T5, Protein Ca (Homo sapiens, UniProt P04070); experiment: Chromogenic substrate assay, Ki (Dixon); type: biochemical; conditions: for Ki: Protein Ca
T5 construct: thrombin versus trypsin, factor Xa, elastase, plasmin, protein Ca, streptokinase, tPA, and urokinase

Factor Xa = molecular target: T6, Factor Xa (Homo sapiens, UniProt P00742); experiment: Chromogenic substrate assay, Ki (Dixon); type: biochemical; conditions: for Ki: Factor Xa
T6 construct: thrombin versus trypsin, factor Xa, elastase, plasmin, protein Ca, streptokinase, tPA, and urokinase; purchased Haematologic Technologies (Essex Junction, VT)

Urokinase = Urokinase (Homo sapiens, UniProt P00749); experiment: Chromogenic substrate assay, Ki (Dixon); type: biochemical; conditions: for Ki: Urokinase
thrombin [7] = molecular target: T2, thrombin; experiment: Enzyme-based assay of purchased virtual screening molecules, single dose; type: biochemical; conditions: single concentration of 50 μM
Excerpt: Prior to the high-throughput virtual screening, we selected the best crystal structure for docking with DOCK 3.6[17] using the selected inhibitors and their physicochemically matched but topologically different decoys. […] Because the earlier enrichment of true positives is more important for high throughput SBVS, we used the value of LogAUC as a metric, selecting 2CF9-H[18] as the best structure. […] Besides, the enrichment at 1% (EF1) was 37.1. The values of LogAUC and EF1 were approximately two-fold higher than the averages (26.1 for LogAUC and 17.1 for EF1) (Figs 1 and S1). Some structures had higher AUC values than that of 2CF9-H, but the value of LogAUC was the highest for 2CF9-H (Fig. S1). The optimization necessitated the calculations of more than 2 million protein and ligand pairs. The high speed of DOCK 3.6 and the in-house Linux cluster system consisting of 128 cores efficiently managed the calculations in three days. Of the candidate molecules having the lowest scores in the high-throughput SBVS, we chose the molecules with desirable geometries and physicochemical properties by a simple manual and visual inspection. […] It is known that the scoring function of virtual screening itself is insufficient to capture such an abnormality. Table S1 and Fig. S2 list the top 40 molecules, which were selected through high-throughput SBVS; we purchased these molecules to measure enzymatic inhibitory activity.

[8] = parameters: method as in PMID 21948594; conditions: not reported in publications; cited from earlier work
[9] = tested on: neuropeptide Y receptor type 5; parameters: method as in PMID 21948594; conditions: not reported in publications; cited from earlier work
[10] = FeCl3-induced arterial thrombosis model; type: in vivo, C57BL/6 mice; conditions: mice, 150 μg/mouse
Description: The FeCl3-induced thrombosis mouse model was established as previously described. Male C57BL/6 mice were fasted overnight and were administered JJ1 in DMSO by intravenous injection. Then, mice were anesthetized using 3% isoflurane (Forane®, Choongwae Pharma. Corp., Seoul, Korea) and injected intravenously with 0.1 mL 0.1% rhodamine 6 G (Sigma). A testicular artery (200 μm in diameter) was carefully exposed and a cotton thread (200 μm in diameter) saturated with 0.25 mol/L FeCl3 was applied to the adventitial surface. After 5 min, the cotton thread was removed, and the wound was flushed with saline solution. Thrombus formation was monitored at 35 °C by 3-dimensional imaging as previously described. The size and time of thrombus formation were monitored, and the findings were scored as follows: no thrombus, 0; small thrombus (50 μm × 75 μm), 1; medium-sized thrombus (100 μm × 150 μm), 2; large thrombus (200 μm × 300 μm), 3. The time from FeCl3-mediated endothelial injury to occlusion of the testicular artery by a large thrombus was measured.

T6 sequence (P00742 235-488 limits assumed): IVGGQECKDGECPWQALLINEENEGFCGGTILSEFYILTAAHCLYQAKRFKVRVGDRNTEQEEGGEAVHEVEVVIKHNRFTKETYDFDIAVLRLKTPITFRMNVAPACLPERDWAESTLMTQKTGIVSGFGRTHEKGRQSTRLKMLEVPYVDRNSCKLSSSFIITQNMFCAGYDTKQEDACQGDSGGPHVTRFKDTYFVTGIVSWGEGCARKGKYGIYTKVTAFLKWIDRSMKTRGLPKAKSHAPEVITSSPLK
T6 sequence (P00742 41-179 limits assumed): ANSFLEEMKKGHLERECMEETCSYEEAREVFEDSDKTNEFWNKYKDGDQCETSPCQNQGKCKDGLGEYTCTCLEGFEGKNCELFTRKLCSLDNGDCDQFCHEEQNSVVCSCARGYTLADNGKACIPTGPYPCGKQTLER
Streptokinase, sequence (P00747 581-810 limits assumed): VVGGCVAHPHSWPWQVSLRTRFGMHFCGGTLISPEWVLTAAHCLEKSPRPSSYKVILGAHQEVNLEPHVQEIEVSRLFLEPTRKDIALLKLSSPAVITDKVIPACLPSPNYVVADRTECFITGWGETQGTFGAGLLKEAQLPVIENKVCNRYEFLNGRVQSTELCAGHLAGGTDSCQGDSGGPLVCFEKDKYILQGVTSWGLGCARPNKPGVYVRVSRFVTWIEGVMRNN
T4 sequence (P00747 581-810 limits assumed): as above
T4 sequence (P00747 97-580 limits assumed): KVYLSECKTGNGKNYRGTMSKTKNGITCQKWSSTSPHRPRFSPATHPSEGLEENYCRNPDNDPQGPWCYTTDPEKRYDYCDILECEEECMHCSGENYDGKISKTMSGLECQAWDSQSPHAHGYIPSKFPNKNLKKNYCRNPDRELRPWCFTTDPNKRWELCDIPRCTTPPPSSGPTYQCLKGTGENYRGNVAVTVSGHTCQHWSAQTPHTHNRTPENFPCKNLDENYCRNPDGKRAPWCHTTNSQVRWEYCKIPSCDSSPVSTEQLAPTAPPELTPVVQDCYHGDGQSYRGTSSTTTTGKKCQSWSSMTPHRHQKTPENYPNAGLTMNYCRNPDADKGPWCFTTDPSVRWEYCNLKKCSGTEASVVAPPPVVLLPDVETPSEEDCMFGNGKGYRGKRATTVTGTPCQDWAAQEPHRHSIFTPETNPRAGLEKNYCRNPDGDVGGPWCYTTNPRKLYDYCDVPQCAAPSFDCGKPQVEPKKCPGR
T5 sequence (P04070 212-450 limits assumed): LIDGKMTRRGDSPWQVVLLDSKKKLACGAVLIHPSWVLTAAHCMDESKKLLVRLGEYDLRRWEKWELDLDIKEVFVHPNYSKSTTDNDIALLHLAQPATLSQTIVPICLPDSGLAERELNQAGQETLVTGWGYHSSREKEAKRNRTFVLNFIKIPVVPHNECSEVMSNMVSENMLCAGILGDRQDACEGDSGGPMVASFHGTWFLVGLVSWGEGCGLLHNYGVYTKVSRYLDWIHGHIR
T5 sequence (P04070 43-197 limits assumed): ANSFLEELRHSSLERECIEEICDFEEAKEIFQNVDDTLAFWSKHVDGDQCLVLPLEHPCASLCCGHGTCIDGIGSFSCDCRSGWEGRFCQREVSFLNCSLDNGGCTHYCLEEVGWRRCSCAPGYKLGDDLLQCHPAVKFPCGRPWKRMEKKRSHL
tPA, sequence (P00750 36-562): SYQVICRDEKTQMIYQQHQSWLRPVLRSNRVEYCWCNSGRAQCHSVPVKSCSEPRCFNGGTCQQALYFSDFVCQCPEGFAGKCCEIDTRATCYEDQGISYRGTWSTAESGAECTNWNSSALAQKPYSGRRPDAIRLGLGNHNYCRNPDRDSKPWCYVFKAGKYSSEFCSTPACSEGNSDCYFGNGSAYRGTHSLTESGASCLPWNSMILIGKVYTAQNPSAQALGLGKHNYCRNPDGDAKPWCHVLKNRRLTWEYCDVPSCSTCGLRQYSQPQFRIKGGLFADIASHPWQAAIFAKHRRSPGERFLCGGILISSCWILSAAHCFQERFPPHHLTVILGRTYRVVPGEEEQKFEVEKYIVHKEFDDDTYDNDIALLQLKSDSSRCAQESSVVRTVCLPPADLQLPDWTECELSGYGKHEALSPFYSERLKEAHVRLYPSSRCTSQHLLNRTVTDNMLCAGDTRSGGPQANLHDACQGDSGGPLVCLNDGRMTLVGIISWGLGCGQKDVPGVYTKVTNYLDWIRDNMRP

CN[C@H](Cc1ccccc1)C(=O)N1CCC[C@H]1C(=O)N[C@H](C=O)CCCN=C(N)N [Efegatran]
Selectivity ratio (Trypsin; K i Trypsin/K i α-thrombin): 0.65
Ki (Trypsin): 0.011 ± 0.0041 µM
Selectivity ratio (human α-thrombin; K i enzyme/K i α-thrombin): 1
Ki (human α-thrombin; mean ± SD (n = 5)): 0.017 ± 0.0003 µM
IC50 (thrombin [1]): 0.025 µM
Selectivity ratio (Elastase): >14,000
Selectivity ratio (tPA): 88
Ki (tPA): 1.5 ± 0.3 µM
Prolongation of PT (human plasma [2]): 1.61 fold
Selectivity ratio (Plasmin): 28
Ki (Plasmin): 0.48 ± 0.04 µM
Tail bleeding time ([3]; 4.17 μg/mouse): 47.4 ± 1.1 s
PT (human plasma [4]): 19.2 ± 0.4 s
PT (INR) (human plasma [4]): 3.15* INR
aPTT (human plasma [5]): 44.2 ± 0.6 s
Prolongation of aPTT (human plasma [6]): 1.86 fold
Selectivity ratio (Streptokinase): 82
Ki (Streptokinase): 1.4 ± 0.11 µM
Selectivity ratio (Protein Ca): 70
Ki (Protein Ca): 1.2 ± 0.15 µM
Selectivity ratio (Factor Xa): 5411
Ki (Factor Xa): 92 ± 9 µM
Selectivity ratio (Urokinase): 147
Ki (Urokinase): 2.5 ± 0.3 µM

COc1ccc(C(=O)NCc2ccco2)cc1S(=O)(=O)N1CCCCC1 [ZINC09063750]
Degree of inhibition in the enzyme-based assay (thrombin [7]): inhibitory effects

CCN(c1cccc(C)c1)S(=O)(=O)c1cc([N+](=O)[O-])ccc1C [ZINC04991109]
Degree of inhibition in the enzyme-based assay (thrombin [7]): inhibitory effects

c1ccc2c(NC3CCCC3)nc(Nc3ccc4c(c3)OCO4)nc2c1 [CHEMBL578118]
Activity linked in ChEMBL [8]: antimalarial effects

c1ccc(Nc2nc(NC3CCCCC3)nc3ccccc23)cc1 [CHEMBL17914]
Activity linked in ChEMBL [9]: linked with the inhibition of neuropeptide Y receptor type 5

CC1CNc2c(cccc2S(=O)(=O)N[C@@H](CCCNC(=N)N)C(=O)N2CC[C@@H](C)C[C@@H]2C(=O)O)C1 (stereo partly drawn) [Argatroban]
Ki (Trypsin): 4.2 ± 0.5 µM
Ki (tPA): > 250 µM
Ki (Plasmin): > 250 µM
Tail bleeding time ([3]; 5.08 μg/mouse): 62.2 ± 0.8 s
PT (human plasma [4]): 27.4 ± 0.7 s
PT (INR) (human plasma [4]): 7.40* INR
Thrombus size score ([10]; 60 min after FeCl3-treatment, score 0-3): 1.15 ± 0.12
Time to large thrombus formation ([10]; FeCl3-induced thrombosis): 61.2 ± 5.1 min
aPTT (human plasma [5]): 61.4 ± 0.8 s
Ki (Streptokinase): > 250 µM
Ki (Protein Ca): > 250 µM
Ki (Factor Xa): > 250 µM
Ki (Urokinase): > 250 µM

Oc1ccccc1Nc1nc(NC2CCCC2)c2ccccc2n1 [CHEMBL581623]
Activity linked in ChEMBL [8]: antimalarial effects
